Test results reported in paper PMC4032193 (Journal of Medicinal Chemistry, 2014).

System: HepG2 (hepatocellular carcinoma) cell line
Details: human

| Structure (SMILES) | SI HepG2/D6 | SI HepG2/TM91C235 | SI HepG2/W2 | IC50 [µM] |
| --- | --- | --- | --- | --- |
| CC(=O)O[C@H]1C[C@H]2[C@@H]([C@H](OC(C)=O)C[C@@H]3CC(NCCCNc4ccnc5cc(Cl)ccc45)CC[C@@]32C)[C@@H]2CC[C@H]([C@H](C)CCCNCCCNc3ccnc4cc(Cl)ccc34)[C@@]12C (mixture of isomers) [Compound 63] | 43/32/24 | 43/32/24 | 43/32/24 | – |
| CC(=O)O[C@@H]1CC[C@@]2(C)[C@@H](C1)C[C@@H](OC(C)=O)[C@@H]1[C@@H]2C[C@H](OC(C)=O)[C@]2(C)[C@@H]([C@H](C)CCCNCCCNc3ccnc4cc(Cl)ccc34)CC[C@@H]12 [Compound 13] | 104/101/67 | 104/101/67 | 104/101/67 | – |
| CC(=O)O[C@@H]1CC[C@@]2(C)[C@@H](C1)C[C@@H](OC(C)=O)[C@@H]1[C@@H]2C[C@H](OC(C)=O)[C@]2(C)[C@@H]([C@H](C)CCCNCCCCNc3ccnc4cc(Cl)ccc34)CC[C@@H]12 [Compound 14] | 107/55/47 | 107/55/47 | 107/55/47 | – |
| CC(=O)O[C@@H]1CC[C@@]2(C)[C@@H](C1)C[C@@H](OC(C)=O)[C@@H]1[C@@H]2C[C@H](OC(C)=O)[C@]2(C)[C@@H]([C@H](C)CCCNCCCCCCNc3ccnc4cc(Cl)ccc34)CC[C@@H]12 [Compound 15] | 47/29/25 | 47/29/25 | 47/29/25 | – |
| CC(=O)O[C@H]1C[C@H]2[C@@H]([C@H](OC(C)=O)C[C@@H]3C[C@H](O)CC[C@@]32C)[C@@H]2CC[C@H]([C@H](C)CCCNCCNc3ccnc4cc(Cl)ccc34)[C@@]12C [Compound 16, N-(3α-Hydroxy-7α,12α-diacetoxy-5β-cholan-24-yl)-N′-(7′-chloroquinolin-4′-yl)ethane-1,2-diamine] | 415/938/407 | 415/938/407 | 415/938/407 | – |
| CC(=O)O[C@H]1C[C@H]2[C@@H]([C@H](OC(C)=O)C[C@@H]3C[C@H](O)CC[C@@]32C)[C@@H]2CC[C@H]([C@H](C)CCCNCCCCNc3ccnc4cc(Cl)ccc34)[C@@]12C [Compound 18] | 47/30/28 | 47/30/28 | 47/30/28 | – |
| CC(=O)O[C@H]1C[C@H]2[C@@H]([C@H](OC(C)=O)C[C@@H]3C[C@H](O)CC[C@@]32C)[C@@H]2CC[C@H]([C@H](C)CCCNCCCCCCNc3ccnc4cc(Cl)ccc34)[C@@]12C [Compound 19] | 60/56/50 | 60/56/50 | 60/56/50 | – |
| CC(=O)O[C@@H]1CC[C@@]2(C)[C@@H](C1)C[C@@H](OC(C)=O)[C@@H]1[C@@H]2C[C@H](OC(C)=O)[C@]2(C)[C@@H]([C@H](C)CCCN(C)CCNc3ccnc4cc(Cl)ccc34)CC[C@@H]12 [Compound 20, N-Methyl-N-(3α,7α,12α-triacetoxy-5β-cholan-24-yl)-N′-(7′-chloroquinolin-4′-yl)ethane-1,2-diamine] | 98/242/79 | 98/242/79 | 98/242/79 | – |
| CC(=O)O[C@@H]1CC[C@@]2(C)[C@@H](C1)C[C@@H](OC(C)=O)[C@@H]1[C@@H]2C[C@H](OC(C)=O)[C@]2(C)[C@@H]([C@H](C)CCCN(C)CCCNc3ccnc4cc(Cl)ccc34)CC[C@@H]12 [Compound 21] | 134/229/71 | 134/229/71 | 134/229/71 | – |
| CC(=O)O[C@H]1C[C@H]2[C@@H]([C@H](OC(C)=O)C[C@@H]3CC(=O)CC[C@@]32C)[C@@H]2CC[C@H]([C@H](C)CCCNCCNc3ccnc4cc(Cl)ccc34)[C@@]12C [Compound 22, N-(3-Oxo-7α,12α-diacetoxy-5β-cholan-24-yl)-N′-(7′-chloroquinolin-4′-yl)ethane-1,2-diamine] | 299/571/109 | 299/571/109 | 299/571/109 | – |
| CC(=O)O[C@H]1C[C@H]2[C@@H]([C@H](OC(C)=O)C[C@@H]3CC(=O)CC[C@@]32C)[C@@H]2CC[C@H]([C@H](C)CCCNCCCNc3ccnc4cc(Cl)ccc34)[C@@]12C [Compound 23] | 161/182/121 | 161/182/121 | 161/182/121 | – |
| CC(=O)O[C@H]1C[C@H]2[C@@H]([C@H](OC(C)=O)C[C@@H]3CC(=O)CC[C@@]32C)[C@@H]2CC[C@H]([C@H](C)CCCNCCCCNc3ccnc4cc(Cl)ccc34)[C@@]12C [Compound 24] | 7/6/6 | 7/6/6 | 7/6/6 | – |
| CC(=O)O[C@H]1C[C@H]2[C@@H]([C@H](OC(C)=O)C[C@@H]3CC(=O)CC[C@@]32C)[C@@H]2CC[C@H]([C@H](C)CCCNCCCCCCNc3ccnc4cc(Cl)ccc34)[C@@]12C [Compound 25] | 30/27/25 | 30/27/25 | 30/27/25 | – |
| CC(=O)N[C@@H]1CC[C@@]2(C)[C@@H](C1)C[C@@H](OC(C)=O)[C@@H]1[C@@H]2C[C@H](OC(C)=O)[C@]2(C)[C@@H]([C@H](C)CCCNCCNc3ccnc4cc(Cl)ccc34)CC[C@@H]12 [Compound 36, 24-N-[(7-Chloroquinoline-4-yl)amino]ethylamino-3α-acetamido-7α,12α-diacetoxy-5β-cholane] | 126/116/126 | 126/116/126 | 126/116/126 | – |
| CC(=O)N[C@@H]1CC[C@@]2(C)[C@@H](C1)C[C@@H](OC(C)=O)[C@@H]1[C@@H]2C[C@H](OC(C)=O)[C@]2(C)[C@@H]([C@H](C)CCCNCCCNc3ccnc4cc(Cl)ccc34)CC[C@@H]12 [Compound 37] | 55/114/51 | 55/114/51 | 55/114/51 | – |
| CC(=O)O[C@H]1C[C@H]2[C@@H]([C@H](OC(C)=O)C[C@@H]3C[C@H](NS(C)(=O)=O)CC[C@@]32C)[C@@H]2CC[C@H]([C@H](C)CCCNCCNc3ccnc4cc(Cl)ccc34)[C@@]12C [Compound 38] | 131/301/222 | 131/301/222 | 131/301/222 | – |
| CC(=O)O[C@H]1C[C@H]2[C@@H]([C@H](OC(C)=O)C[C@@H]3C[C@H](NS(C)(=O)=O)CC[C@@]32C)[C@@H]2CC[C@H]([C@H](C)CCCNCCCNc3ccnc4cc(Cl)ccc34)[C@@]12C [Compound 39] | 130/119/147 | 130/119/147 | 130/119/147 | – |
| CC(=O)O[C@H]1C[C@H]2[C@@H]([C@H](OC(C)=O)C[C@@H]3C[C@H](NC(=O)OC(C)(C)C)CC[C@@]32C)[C@@H]2CC[C@H]([C@H](C)CCCNCCNc3ccnc4cc(Cl)ccc34)[C@@]12C [Compound 40, 24-N-[(7-Chloroquinoline-4-yl)amino]ethylamino-3α-N′-tert-butylcarbamate-7α,12α-diacetoxy-5β-cholane] | 1743/531/464 | 1743/531/464 | 1743/531/464 | – |
| CC(=O)O[C@H]1C[C@H]2[C@@H]([C@H](OC(C)=O)C[C@@H]3C[C@H](NS(C)(=O)=O)CC[C@@]32C)[C@@H]2CC[C@H]([C@H](C)CCCN(C)CCNc3ccnc4cc(Cl)ccc34)[C@@]12C [Compound 42, 24-N-Methyl-N-[(7-chloroquinoline-4-yl)amino]ethylamino-3α-methanesulfonamide-7α,12α-diacetoxy-5β-cholane] | 1194/2707/2197 | 1194/2707/2197 | 1194/2707/2197 | – |
| CC(=O)O[C@H]1C[C@H]2[C@@H]([C@H](OC(C)=O)C[C@@H]3C[C@H](NC(=O)OC(C)(C)C)CC[C@@]32C)[C@@H]2CC[C@H]([C@H](C)CCCN(C)CCNc3ccnc4cc(Cl)ccc34)[C@@]12C [Compound 44, 24-N-Methyl-N-[(7-chloroquinoline-4-yl)amino]ethylamino-3α-N′-tert-butylcarbamate-7α,12α-diacetoxy-5β-cholane] | 293/264/144 | 293/264/144 | 293/264/144 | – |
| CC(=O)O[C@H]1C[C@H]2[C@@H]([C@H](OC(C)=O)C[C@@H]3C[C@H](N(C)C)CC[C@@]32C)[C@@H]2CC[C@H]([C@H](C)CCCNCCCNc3ccnc4cc(Cl)ccc34)[C@@]12C [Compound 51] | 382/137/156 | 382/137/156 | 382/137/156 | – |
| CC(=O)O[C@H]1C[C@H]2[C@@H]([C@H](OC(C)=O)C[C@@H]3C[C@H](N)CC[C@@]32C)[C@@H]2CC[C@H]([C@H](C)CCCNCCNc3ccnc4cc(Cl)ccc34)[C@@]12C [Compound 52, 24-N-[(7-Chloroquinoline-4-yl)amino]ethylamino-3α-amino-7α,12α-diacetoxy-5β-cholane] | – | – | – | 3.77 |
| CC(=O)O[C@H]1C[C@H]2[C@@H]([C@H](OC(C)=O)C[C@@H]3C[C@H](N)CC[C@@]32C)[C@@H]2CC[C@H]([C@H](C)CCCNCCCNc3ccnc4cc(Cl)ccc34)[C@@]12C [Compound 53] | 54/75/43 | 54/75/43 | 54/75/43 | – |
| CC(=O)O[C@H]1C[C@H]2[C@@H]([C@H](OC(C)=O)C[C@@H]3C[C@H](N)CC[C@@]32C)[C@@H]2CC[C@H]([C@H](C)CCCN(C)CCCNc3ccnc4cc(Cl)ccc34)[C@@]12C [Compound 55] | 45/44/50 | 45/44/50 | 45/44/50 | – |
| CC(=O)O[C@H]1C[C@H]2[C@@H]([C@H](OC(C)=O)C[C@@H]3C[C@H](N)CC[C@@]32C)[C@@H]2CC[C@H]([C@H](C)CCCN(CCC[C@@H](C)[C@H]3CC[C@H]4[C@@H]5[C@H](OC(C)=O)C[C@@H]6C[C@H](N)CC[C@]6(C)[C@H]5C[C@H](OC(C)=O)[C@]34C)CCNc3ccnc4cc(Cl)ccc34)[C@@]12C [Compound 60, N,N-Di(3α-amino-7α,12α-diacetoxy-5β-cholan-24-yl)-N′-(7′-chloroquinoline-4′-yl)-1,3-ethanediamine] | 21/19/19 | 21/19/19 | 21/19/19 | – |
